These results are taken from BindingDB's records for doi:10.1002/cbic.201300770 (Northeast Ohio Medial University, 2014).

Test [1] concerns the target T1, Amine oxidase [flavin-containing] B (Homo sapiens, UniProt P27338).
T1 sequence (P27338 whole entry): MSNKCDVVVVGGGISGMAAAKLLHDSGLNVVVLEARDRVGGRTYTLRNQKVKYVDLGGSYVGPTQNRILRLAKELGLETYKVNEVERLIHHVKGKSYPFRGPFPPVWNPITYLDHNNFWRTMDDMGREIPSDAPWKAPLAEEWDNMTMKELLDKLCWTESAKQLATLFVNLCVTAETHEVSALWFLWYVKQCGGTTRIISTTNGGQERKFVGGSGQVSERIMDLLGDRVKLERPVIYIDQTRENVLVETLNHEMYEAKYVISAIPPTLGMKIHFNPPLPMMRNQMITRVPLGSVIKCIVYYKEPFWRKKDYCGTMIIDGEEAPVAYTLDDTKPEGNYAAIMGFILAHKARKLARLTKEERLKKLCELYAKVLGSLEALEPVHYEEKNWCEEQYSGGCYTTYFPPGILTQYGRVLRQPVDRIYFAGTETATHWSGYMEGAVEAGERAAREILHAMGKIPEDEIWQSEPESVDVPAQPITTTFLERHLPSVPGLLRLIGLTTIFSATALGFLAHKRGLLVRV
In words: MAO Enzyme Assays. Conditions: pH 7.4. The procedure: (§1) The buffer system used was a 0.1 M phosphate buffer (pH 7.4). The assays were carried out in a fluorescent 96-well plate. The final concentrations of MAO-A and MAO-B were 6 µg/mL and 15 µg/mL, respectively. The final concentration of kynuramine was 40 µM for MAO-A or 20 µM for MAO-B. The compounds (10 mM stock solution in DMSO; less than 2% (v/v) final concentration of DMSO in the assay) were incubated with MAO and the substrate for 20 min, and quenched with the addition of 2 N NaOH.

For test [2], the target named is T2, Amine oxidase [flavin-containing] A (Homo sapiens, UniProt P21397).
T2 sequence (P21397 whole entry): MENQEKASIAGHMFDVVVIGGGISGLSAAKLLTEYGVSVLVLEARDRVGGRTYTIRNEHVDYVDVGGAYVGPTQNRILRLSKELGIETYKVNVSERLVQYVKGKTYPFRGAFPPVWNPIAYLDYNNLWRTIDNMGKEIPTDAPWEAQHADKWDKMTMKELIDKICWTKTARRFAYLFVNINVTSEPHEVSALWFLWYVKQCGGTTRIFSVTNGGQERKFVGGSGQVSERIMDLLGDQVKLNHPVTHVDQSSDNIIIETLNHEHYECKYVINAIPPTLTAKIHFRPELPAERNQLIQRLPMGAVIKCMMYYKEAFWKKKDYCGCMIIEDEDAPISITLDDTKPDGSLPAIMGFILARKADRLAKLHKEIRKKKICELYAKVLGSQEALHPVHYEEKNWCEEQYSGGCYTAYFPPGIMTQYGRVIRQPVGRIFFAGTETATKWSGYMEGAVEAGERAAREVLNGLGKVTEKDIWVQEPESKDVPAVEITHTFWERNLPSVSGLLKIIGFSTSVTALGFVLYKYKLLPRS
In words: MAO Enzyme Assays. To be noted: pH 7.4. The procedure:
as §1

Turning to `c1ccc(/N=N/c2ccccc2)cc1` [(E)-1,2-diphenyldiazene], the IC50 (commonly the concentration at which inhibition is half-maximal) in test [1] was 2.66 µM; in test [2] it was 22.9 µM.
For `CN(C)c1ccc(/N=N/c2ccccc2)cc1` [(E)-N,N-dimethyl-4-(phenyldiazenyl)aniline], the IC50 is 0.0146 µM in test [1] and 4.64 µM in test [2].
